Assay: in vitro
Conditions: human, hela cells, % viability

Compound | viability at 28.5 h, 10 µM [%] | viability at 28.5 h, 10 µM (bulk resorufin, single well) [%]
CCOC(=O)CC(O)(c1ccc(OC)cc1)c1cc(C)no1 (stereo not drawn) [CBK023133] | 107 | 
COc1cccc(CCNC(=O)CCN2C(=O)CCC2=O)c1 [CBK023150] | 91.8 | 
C#CCn1c(=O)n(C)n(C)c1=O [CBK023151] | 89.4 | 
CSc1nc(Cl)c(-c2ccccc2)c(N(C)C)n1 [CBK023169] | 96.9 | 
CC1CCCCN1CC(=O)N(C)C(C)COc1ccc(Cl)cc1 (stereo not drawn) [CBK023201] | 87.8 | 
CNCCOc1ccccc1O [CBK023215C] | 99.8 | 
CO/C(=N\S(=O)(=O)c1ccccc1)c1ccccc1 [CBK023221] | 89.4 | 
CCCN(CCC)C(=O)c1nc(C)c(C(=O)N(CCC)CCC)nc1C [CBK023232] | 89.2 | 
CCN(CC)CCN(C(=O)N1CCCC1)c1c(C)cccc1C [CBK023237C] | 98.7 | 
O=C(CCCN[C@H]1CC[C@](O)(c2ccc(F)cc2)CC1)c1ccc(F)cc1 [CBK023258C] | 90.7 | 
O=C(N/N=C\c1c(F)cccc1Cl)c1ccncc1 [CBK023263] | 84.7 | 
CCC1(c2ccccc2)OCC(C2CCCCN2)O1 (stereo not drawn) [CBK023284C] | 85.7 | 
Cc1ccc(S(=O)(=O)N2CC(=O)NC2=S)cc1 [CBK023293] | 94.5 | 
Cc1cc(=O)c(C#N)c(C)[nH]1 [CBK023326] | 92.4 | 
CC(=O)CCc1cc(CCC(N)=O)on1 [CBK023350] | 90.3 | 
CN(C)CCN1C(=O)CCc2ccccc21 [CBK023390C] | 102 | 
CN(C)C(=O)C1(c2ccccc2)CCNC1 (stereo not drawn) [CBK023394C] | 114 | 
CC1(C)Cc2ccccc2C(NCCC(=O)O)=N1 [CBK023412] | 97.9 | 
Cc1ccc(S(=O)(=O)NCCC(=O)NO)cc1 [CBK023472] | 110 | 
CCCC1SCC(=O)N1c1nncs1 (stereo not drawn) [CBK023497] | 95.4 | 
S=C(Cc1csc2ccccc12)NC1CCCCC1 [CBK023515] | 88.7 | 
Cc1csc2ncnc(N3CCN(C(=O)C4CC4)CC3)c12 [CBK023593] | 112 | 
N#Cc1nccnc1S(=O)(=O)CCO [CBK023595] | 90.1 | 
CC(=O)N1N=C(c2cccnc2)OC1(C)C [CBK023619] | 90.4 | 

Compound | viability at 28.5 h, 10 µM [%] | viability at 28.5 h, 10 µM (bulk resorufin, single well) [%]
NC(=O)c1sc2nc(-c3cccnc3)ccc2c1N [CBK023645] | 66 | 
CCOC(=O)c1cnn2c(N)c(C(N)=O)nnc12 [CBK023694] | 98.2 | 
CC(C)/C=N/N=C1\NC(=O)CS1 [CBK023706] | 90.7 | 
COC(=O)c1ccccc1OCCc1csc(NS(=O)(=O)c2cccc(Cl)c2C)n1 [CBK023735] | 116 | 
O=C1CCCN1CC#CCN1CCN(Cc2ccccc2)CC1 [CBK023770C] | 96.2 | 
CCN(CC)CCn1cc(C2CCCN(C)CC2)c2ccccc21 (stereo not drawn) [CBK023788B] | 91.1 | 
O=C(O)c1cnc(NCC2CCCCCC2)[nH]c1=O [CBK023792] | 88.8 | 
CN/C(=N\C1CCCCC1)N1CCOCC1 [CBK023800G] | 92.2 | 
CCCCNC(=S)NC1CC[C@@]2(Cc3ccc(OC)c(OC)c3)CCN(C)[C@H]2C1 (stereo partly drawn) [CBK023805] | 81.5 | 
CCNC(=S)N[C@@H]1CC[C@@]2(Cc3ccc(OC)c(OC)c3)CCN(C)[C@H]2C1 [CBK023811] | 94.5 | 
CN(C)CCN(C)[C@H]1CCCC[C@@H]1N(C)C(=O)Cc1ccc(Br)cc1 [CBK023819C] | 93.4 | 
COc1cc(CCN2CCCCC2)c(C(C)n2cncn2)cc1OC (stereo not drawn) [CBK023837G] | 90.3 | 
CNC(=O)Nc1cccc(S(N)(=O)=O)c1 [CBK023839] | 89.1 | 
Cc1nc(NCc2ccc(C(F)(F)F)cc2)nc(N2CCOCC2)n1 [CBK023863] | 91.9 | 
CCN(CC)CCCNc1nc2ccc(O)cc2s1 [CBK023880C] | 105 | 
CC(C)(C)NCC(O)CO/N=C(/c1ccncc1)c1ccc(Br)cc1 (stereo not drawn) [CBK023914G] | 95.7 | 
CN1CCCC1C(CCNC1CCCCC1)c1ccccc1 (stereo not drawn) [CBK023921C] | 99 | 
COc1ccccc1NC(=O)CN1CCN(CCC(=O)c2ccc(C(C)C)cc2)CC1 [CBK023925C] | 95 | 
CC1(C)OC(N2CCN(Cc3ccccc3)CC2)=Nc2ccccc21 [CBK023933C] | 90.9 | 
CCCN(CCc1cccnc1)C1Cc2cc(OC)c(OC)cc2C1 [CBK023935C] |  | 88.1
c1ccc2[nH]c(CCSCCc3nc4ccccc4[nH]3)nc2c1 [CBK023949] | 86 | 
O=c1[nH]c(=S)c2c(n1CCc1ccccn1)CCCC2 [CBK023951G] | 101 | 
c1ccc2c(c1)CCC(CNCCN1CCOCC1)O2 (stereo not drawn) [CBK023956G] | 94 | 
CCN(CC)CC1CCCCC1=O (stereo not drawn) [CBK023965G] | 93.9 | 

Compound | viability at 28.5 h, 10 µM [%] | viability at 28.5 h, 10 µM (bulk resorufin, single well) [%]
NCCNCCNCCN [CBK023985C] | 93.2 | 
Cc1cc(C(=O)NCCc2ccc(S(=O)(=O)NC(=O)NC3CCCCC3)cc2)n[nH]1 [CBK023997] | 99.1 | 
Nc1ccc2cc3ccc(N)cc3nc2c1 [CBK024003G] | 71 | 
COc1ccc2c3c1CCC(C)(C)C3COC2CCN1CCN(c2ccc(F)cc2)CC1 (stereo not drawn) [CBK024047C] | 86.7 | 
N=C(N)NCCc1ccc(Cl)cc1 [CBK024074G] | 105 | 
CC1(C)COC(CCN2CCN(c3ccc(F)cc3)CC2)c2ccccc21 (stereo not drawn) [CBK024080C] | 105 | 
COc1ccccc1CN(C)C(C)=O [CBK024120] | 118 | 
CCC(=O)N[C@H]1CC[C@@]2(Cc3ccc(OC)cc3)CCN(C)[C@H]2C1 [CBK024126] | 98.9 | 
COc1ccc(C[C@@]23CC[C@H](NC(=O)NCCc4ccccc4)C[C@@H]2N(C)CC3)cc1 [CBK024127] | 95.2 | 
Cc1cc(C(F)(F)F)nc2c(OCCOc3nccnc3N3CCNCC3)cnn12 [CBK024195C] | 96.1 | 
COc1ccc(N)cc1OCCn1ccnc(N2CCNCC2)c1=O [CBK024211C] | 98.3 | 
OC(c1ccncc1)C(O)c1ccncc1 (stereo not drawn) [CBK024254] | 87.1 | 
COc1ccc(CCC(=O)Nc2ccccc2N2CCCNCC2)cc1 [CBK024286T] | 101 | 
CCNc1cccnc1N1CCN(CCc2cc(C)c(O)c(C)c2)CC1 [CBK024361C] | 108 | 
CCCN1CCCC(c2ccccc2O)C1 (stereo not drawn) [CBK024365G] | 95.3 | 
Oc1nc(O)c2c3c(n(CCn4ccnc4)c2n1)CCCC3 [CBK024380B] | 109 | 
CC(C)CC(C(=O)Nc1ccc(C2CCCC2)cc1)N1CCN(C)CC1 (stereo not drawn) [CBK024386C] | 87 | 
c1ccc(CNCc2nc(-c3ccccc3)no2)cc1 [CBK024404] | 99.1 | 
NS(=O)(=O)c1cccc(NC(=O)c2cccnc2)c1 [CBK024417] | 93.6 | 
NS(=O)(=O)c1cccc(NC(=O)c2cccs2)c1 [CBK024419] | 94.2 | 
CC(=O)NCCN(Cc1ccc(S(=O)(=O)N2CCOC2=O)cc1)Cc1ccoc1 [CBK024460] | 110 | 
COc1cccc(CC(=O)NCc2ccccc2OC2CCNC2)c1 (stereo not drawn) [CBK024487T] | 88.5 | 
COCCC(=O)NCc1ccc(OC2CCNCC2)cc1 [CBK024494T] | 98.6 | 
COc1ccc(CCN(CCc2ccccc2)CC(O)COc2cccc3c2CCCC3)cc1 (stereo not drawn) [CBK024506T] | 82.2 | 

Compound | viability at 28.5 h, 10 µM [%] | viability at 28.5 h, 10 µM (bulk resorufin, single well) [%]
COc1ccc(CCN(Cc2cccnc2)CC(O)COc2cccc3c2CCCC3)cc1 (stereo not drawn) [CBK024545T] | 92 | 
CCCC(=O)Nc1ccc(N2CCNCC2)c2ccccc12 [CBK024619T] | 88.4 | 
O=C1OCCN1S(=O)(=O)c1ccc(CN2CCCN(Cc3ccc(S(=O)(=O)N4CCOC4=O)cc3)CC2)cc1 [CBK024728] | 87.1 | 
O=C1OCCN1S(=O)(=O)c1ccc(CN2CCN(Cc3ccc(S(=O)(=O)N4CCOC4=O)cc3)CC2)cc1 [CBK024729] | 91.4 | 
O=S(=O)(c1ccccc1)N(CC(F)(F)F)c1ccc(C(O)(C(F)(F)F)C(F)(F)F)cc1 [CBK024768] | 121 | 
CCCC(=O)Nc1cc(S(=O)(=O)NC)ccc1C [CBK024770] | 91.8 | 
Cc1c(Cl)cccc1S(=O)(=O)Nc1nccnc1C(=O)O [CBK024795] | 90.9 | 
O=C(O)c1c(NS(=O)(=O)Cc2ccccc2[N+](=O)[O-])sc2c1CCCC2 [CBK024819] | 106 | 
O=c1c(N2CCNCC2)nccn1CC1COc2ccccc2O1 (stereo not drawn) [CBK024845T] | 87 | 
O=C1NC(N2CCCC2)=NOc2nnc(Cl)cc21 [CBK024856] | 109 | 
COc1cc(C(C)=O)ccc1OCCCN1CCC(O)(C(=O)c2cccc(C(F)(F)F)c2)CC1 [CBK024866C] | 103 | 
COc1cc(C(C)=O)ccc1OCCCN1CCC(O)(C(=O)c2ccc(Cl)c(Cl)c2)CC1 [CBK024875C] | 97.6 | 
CCCN1CCC2CN(CCCC(=O)c3ccc(F)cc3)CCN2C1=O (stereo not drawn) [CBK024882C] | 101 | 
CCCCCCN1CCC2CN(CCCC(=O)c3ccc(F)cc3)CCN2C1=O (stereo not drawn) [CBK024890C] | 99 | 
CC(C)CCN1CCC2CN(CCCC(c3ccc(F)cc3)c3ccc(F)cc3)CCN2C1=O (stereo not drawn) [CBK024898C] | 102 | 
CCNC(=O)N1CC(C)N(CCCC(c2ccc(F)cc2)c2ccc(F)cc2)CC1C (stereo not drawn) [CBK024912C] | 105 | 
CCCCCNC(=O)N1CCN(CCCC(c2ccc(F)cc2)c2ccc(F)cc2)CC1 [CBK024917C] | 103 | 
CC1CN(C(=O)NC2CC2)C(C)CN1CCCC(c1ccc(F)cc1)c1ccc(F)cc1 (stereo not drawn) [CBK024927C] | 104 | 
CC(=O)N1CCN(CCCC(c2ccc(F)cc2)c2ccc(F)cc2)CC1 [CBK024944C] | 101 | 
CNC(=O)N1CCN(CCOC(c2ccc(F)cc2)c2ccc(F)cc2)CC1 [CBK024948C] | 87.3 | 
CC(C)C(=O)N1CC(C)N(CCCC(c2ccc(F)cc2)c2ccc(F)cc2)CC1C (stereo not drawn) [CBK024961C] | 97.6 | 

Reference: PMC12040169 (PLOS Biology, 2025)
